PubChem BioAssay AID1259407 (Chemical Carcinogenesis Research Information System (CCRIS), 2018)
Activity calls are given as the source filed them. The rule behind the calls is not given here.

Tested on: CCRIS mutagenicity, Ames/micronucleus/aberration tests
Experiment: CCRIS mutagenicity studies
[1] = Test System: AMES SALMONELLA TYPHIMURIUM, Strain/Indicator: TA98, Metabolic Activation: NONE, Method: STANDARD PLATE
[2] = Test System: AMES SALMONELLA TYPHIMURIUM, Strain/Indicator: TA98, Metabolic Activation: RAT, LIVER, S-9, AROCLOR 1254, Method: STANDARD PLATE
[3] = Test System: AMES SALMONELLA TYPHIMURIUM, Strain/Indicator: TA100, Metabolic Activation: NONE, Method: STANDARD PLATE
[4] = Test System: AMES SALMONELLA TYPHIMURIUM, Strain/Indicator: TA100, Metabolic Activation: RAT, LIVER, S-9, AROCLOR 1254, Method: STANDARD PLATE
[5] = Test System: AMES SALMONELLA TYPHIMURIUM, Strain/Indicator: TA102, Metabolic Activation: RAT, LIVER, S-9, AROCLOR 1254, Method: PREINCUBATION
[6] = Test System: AMES SALMONELLA TYPHIMURIUM, Strain/Indicator: TA1535, Metabolic Activation: NONE, Method: STANDARD PLATE
[7] = Test System: AMES SALMONELLA TYPHIMURIUM, Strain/Indicator: TA1535, Metabolic Activation: RAT, LIVER, S-9, AROCLOR 1254, Method: STANDARD PLATE
[8] = Test System: AMES SALMONELLA TYPHIMURIUM, Strain/Indicator: TA1537, Metabolic Activation: NONE, Method: STANDARD PLATE
[9] = Test System: AMES SALMONELLA TYPHIMURIUM, Strain/Indicator: TA1537, Metabolic Activation: RAT, LIVER, S-9, AROCLOR 1254, Method: STANDARD PLATE
[10] = Test System: AMES SALMONELLA TYPHIMURIUM, Strain/Indicator: TA1538, Metabolic Activation: NONE, Method: STANDARD PLATE
[11] = Test System: AMES SALMONELLA TYPHIMURIUM, Strain/Indicator: TA1538, Metabolic Activation: RAT, LIVER, S-9, AROCLOR 1254, Method: STANDARD PLATE
[12] = Test System: Mouse lymphoma, Strain/Indicator: L5178Y (tk+/tk-), Metabolic Activation: Rat, Liver, S-9, Aroclor 1254, Method: Suspension/plate
[13] = Test System: Ames Salmonella typhimurium, Strain/Indicator: TA98, Metabolic Activation: None, Method: Preincubation
[14] = Test System: Ames Salmonella typhimurium, Strain/Indicator: TA98, Metabolic Activation: Rat, Liver, S9, Sodium phenobarbital and 5,6-benzoflavone (10%), Method: Preincubation
[15] = Test System: Ames Salmonella typhimurium, Strain/Indicator: TA100, Metabolic Activation: None, Method: Preincubation
[16] = Test System: Ames Salmonella typhimurium, Strain/Indicator: TA100, Metabolic Activation: Rat, Liver, S9, Sodium phenobarbital and 5,6-benzoflavone (10%), Method: Preincubation
[17] = Test System: Ames Salmonella typhimurium, Strain/Indicator: TA1535, Metabolic Activation: None, Method: Preincubation
[18] = Test System: Ames Salmonella typhimurium, Strain/Indicator: TA1535, Metabolic Activation: Rat, Liver, S9, Sodium phenobarbital and 5,6-benzoflavone (10%), Method: Preincubation
[19] = Test System: Ames Salmonella typhimurium, Strain/Indicator: TA1537, Metabolic Activation: None, Method: Preincubation
[20] = Test System: Ames Salmonella typhimurium, Strain/Indicator: TA1537, Metabolic Activation: Rat, Liver, S9, Sodium phenobarbital and 5,6-benzoflavone (10%), Method: Preincubation
[21] = Test System: E. coli, Strain/Indicator: WP2uvrA/pKM101, Metabolic Activation: None, Method: Preincubation
[22] = Test System: E. coli, Strain/Indicator: WP2uvrA/pKM101, Metabolic Activation: Rat, Liver, S9, Sodium phenobarbital and 5,6-benzoflavone (10%), Method: Preincubation

SMILES | mutagenic call [1] | mutagenic call [2] | mutagenic call [3] | mutagenic call [4] | mutagenic call [5] | mutagenic call [6] | mutagenic call [7] | mutagenic call [8] | mutagenic call [9] | mutagenic call [10] | mutagenic call [11] | mutagenic call [12] | mutagenic call [13] | mutagenic call [14] | mutagenic call [15] | mutagenic call [16] | mutagenic call [17] | mutagenic call [18] | mutagenic call [19] | mutagenic call [20] | further results
C=C1CC[C@H]2C[C@@H]1C2(C)C | inactive; negative | inactive; negative | inactive; negative | inactive; negative | inactive; negative | inactive; negative | inactive; negative | inactive; negative | inactive; negative | inactive; negative | inactive; negative | inactive; inconcludive (previous evaluation negative) |  |  |  |  |  |  |  |  | mutagenic call (Test System: AMES SALMONELLA TYPHIMURIUM, Strain/Indicator: TA98, Metabolic Activation: HAMSTER, LIVER, S-9, AROCLOR 1254 (2.5-20%), Method: PREINCUBATION): inactive; negative; mutagenic call (Test System: AMES SALMONELLA TYPHIMURIUM, Strain/Indicator: TA98, Metabolic Activation: HAMSTER, LIVER, S-9, AROCLOR 1254, Method: STANDARD PLATE): inactive; negative; mutagenic call (Test System: AMES SALMONELLA TYPHIMURIUM, Strain/Indicator: TA100, Metabolic Activation: HAMSTER, LIVER, S-9, AROCLOR 1254 (2.5-20%), Method: PREINCUBATION): inactive; negative; mutagenic call (Test System: AMES SALMONELLA TYPHIMURIUM, Strain/Indicator: TA100, Metabolic Activation: HAMSTER, LIVER, S-9, AROCLOR 1254, Method: STANDARD PLATE): inactive; negative; mutagenic call (Test System: AMES SALMONELLA TYPHIMURIUM, Strain/Indicator: TA102, Metabolic Activation: HAMSTER, LIVER, S-9, AROCLOR 1254, Method: PREINCUBATION): inactive; negative; mutagenic call (Test System: AMES SALMONELLA TYPHIMURIUM, Strain/Indicator: TA102, Metabolic Activation: NONE, Method: PREINCUBATION): inactive; negative; mutagenic call (Test System: AMES SALMONELLA TYPHIMURIUM, Strain/Indicator: TA1535, Metabolic Activation: HAMSTER, LIVER, S-9, AROCLOR 1254, Method: STANDARD PLATE): inactive; negative; mutagenic call (Test System: AMES SALMONELLA TYPHIMURIUM, Strain/Indicator: TA1537, Metabolic Activation: HAMSTER, LIVER, S-9, AROCLOR 1254, Method: STANDARD PLATE): inactive; negative; mutagenic call (Test System: AMES SALMONELLA TYPHIMURIUM, Strain/Indicator: TA1538, Metabolic Activation: HAMSTER, LIVER, S-9, AROCLOR 1254, Method: STANDARD PLATE): inactive; negative; mutagenic call (Test System: Mouse lymphoma, Strain/Indicator: L5178Y (tk+/tk-), Metabolic Activation: None, Method: Suspension/plate): inactive; negative
Cc1c(C)c2c(c(C)c1O)CC[C@@](C)(CCC[C@H](C)CCC[C@H](C)CCCC(C)C)O2 | inactive; negative | inactive; negative | inactive; negative | inactive; negative |  | inactive; negative | inactive; negative | inactive; negative | inactive; negative | inactive; negative | inactive; negative |  |  |  |  |  |  |  |  |  | mutagenic call (Test System: E. COLI, Strain/Indicator: WP2, Metabolic Activation: NONE, Method: STANDARD PLATE): inactive; negative; mutagenic call (Test System: E. COLI, Strain/Indicator: WP2, Metabolic Activation: RAT, LIVER, S-9, AROCLOR 1254, Method: STANDARD PLATE): inactive; negative
C=COC(C)=O | inactive; negative | inactive; negative | inactive; negative | inactive; negative | active; positive |  |  |  |  |  |  | active; positive | inactive; negative | inactive; negative | inactive; negative | inactive; negative | inactive; negative | inactive; negative | inactive; negative | inactive; negative | mutagenic call (Test System: AMES SALMONELLA TYPHIMURIUM, Strain/Indicator: TA97, Metabolic Activation: NONE, Method: STANDARD PLATE): inactive; negative; mutagenic call (Test System: AMES SALMONELLA TYPHIMURIUM, Strain/Indicator: TA97, Metabolic Activation: RAT, LIVER, S-9, AROCLOR 1254, Method: STANDARD PLATE): inactive; negative; mutagenic call (Test System: AMES SALMONELLA TYPHIMURIUM, Strain/Indicator: TA102, Metabolic Activation: RAT LIVER S-9, PHENOBARBITAL AND 5,6-BENZOFLAVONE, Method: STANDARD PLATE): inactive; negative; mutagenic call (Test System: AMES SALMONELLA TYPHIMURIUM, Strain/Indicator: TA102, Metabolic Activation: RAT, LIVER, S-9, AROCLOR 1254, Method: STANDARD PLATE): inactive; negative; mutagenic call (Test System: AMES SALMONELLA TYPHIMURIUM, Strain/Indicator: TA2638, Metabolic Activation: RAT LIVER S-9, PHENOBARBITAL AND 5,6-BENZOFLAVONE, Method: STANDARD PLATE): inactive; negative; mutagenic call (Test System: Ames Salmonella typhimurium, Strain/Indicator: YG7108pin3ERb5, Metabolic Activation: None, Method: Standard plate): inactive; negative; mutagenic call (Test System: E. COLI, Strain/Indicator: WP2 (PKM101), Metabolic Activation: RAT LIVER S-9, PHENOBARBITAL AND 5,6-BENZOFLAVONE, Method: STANDARD PLATE): inactive; negative; mutagenic call (Test System: E. COLI, Strain/Indicator: WP2 UVRA (PKM101), Metabolic Activation: RAT LIVER S-9, PHENOBARBITAL AND 5,6-BENZOFLAVONE, Method: STANDARD PLATE): inactive; negative; mutagenic call [21]: inactive; negative; mutagenic call [22]: inactive; negative; mutagenic call (Test System: MOUSE LYMPHOMA, Strain/Indicator: L5178Y (TK+/TK-), Metabolic Activation: NONE, Method: SUSPENSION/PLATE): active; positive. reevaluation of results: positive
CC(=O)CC(=O)Nc1ccccc1C |  |  |  |  |  |  |  |  |  |  |  |  | inactive; negative | inactive; negative | inactive; negative | inactive; negative | inactive; negative | inactive; negative | inactive; negative | inactive; negative | mutagenic call (Test System: AMES SALMONELLA TYPHIMURIUM, Strain/Indicator: TA102, Metabolic Activation: NONE, Method: STANDARD PLATE): inactive; negative; mutagenic call (Test System: AMES SALMONELLA TYPHIMURIUM, Strain/Indicator: TA2638, Metabolic Activation: NONE, Method: STANDARD PLATE): inactive; negative; mutagenic call (Test System: E. COLI, Strain/Indicator: WP2 (PKM101), Metabolic Activation: NONE, Method: STANDARD PLATE): inactive; negative; mutagenic call (Test System: E. COLI, Strain/Indicator: WP2 UVRA (PKM101), Metabolic Activation: NONE, Method: STANDARD PLATE): inactive; negative; mutagenic call [21]: inactive; negative; mutagenic call [22]: inactive; negative
Cn1c(N=[N+]=[N-])nc2ccc3ccccc3c21 | active; positive |  |  |  |  |  |  |  |  |  |  |  |  |  |  |  |  |  |  |  | mutagenic call (Test System: AMES SALMONELLA TYPHIMURIUM, Strain/Indicator: TA98(1,8-DNP6), Metabolic Activation: NONE, Method: STANDARD PLATE): active; positive
